Patent publication US5116863A, “Dibenz[b,e]oxepin derivative and pharmaceutical compositions thereof” (Kyowa Hakko Kogyo Co., Ltd., priority 1986, dated 1992)
Like-named read-outs stand apart in the source and are kept apart here.

Tests used:
dd, male mice = type: in vivo
Protocol: Groups each consisting of 3 dd, male mice having body weights of 20±1 g were used, and the compound of the present invention was administered orally (po: 300 mg/kg) or intraperitoneally (ip: 100 mg/kg).

[1] = test system: homologous PCA (passive cutaneous anaphlaxis) of rats; test: Homologous PCA (passive cutaneous anaphylaxis) test of rats for 48 hours, oral (antiallergic activity); type: in vivo, Wistar male rats; conditions: for minimal effective dose / responders at 0.1 mg/kg / responders at 1 mg/kg / responders at 10 mg/kg / responders at 100 mg/kg / responders at 0.01 mg/kg / responders at 0.001 mg/kg: Rattus norvegicus; for minimal effective dose: read-out: MED (minimum effective dosage), PCA inhibition; for responders at 0.1 mg/kg / responders at 1 mg/kg / responders at 10 mg/kg / responders at 100 mg/kg / responders at 0.01 mg/kg / responders at 0.001 mg/kg: po; for responders at 0.1 mg/kg / responders at 1 mg/kg / responders at 10 mg/kg / responders at 100 mg/kg / responders at 0.01 mg/kg / responders at 0.001 mg/kg / Number of positive zooids in one group of 3 zooids: positive = inhibition rate 50% or higher; for responders at 0.1 mg/kg / responders at 1 mg/kg / responders at 10 mg/kg / responders at 100 mg/kg / responders at 0.01 mg/kg: read-out: Number of positive zooids in one group of 3 zooids (converted); for responders at 0.001 mg/kg: dosage 0.001 mg/kg, read-out: Number of positive zooids in one group of 3 zooids
Protocol: Antiallergic activity was investigated by a homologous PCA (passive cutaneous anaphlaxis) of rats for 48 hours, where Wistar male rats having body weights of 180 to 220 g were used for sampling of antiserum and Wistar male rats having body weights of 120 to 140 g were used for the PCA test.
Anti-egg white albumin (EWA) rat serum was prepared according to Stotland and Share's method [Canad. J. Physiol. Pharmacol. 52, 1114 (1974)]. That is, 1 mg of EWA was mixed with 20 mg of aluminum hydroxide gel and 0.5 ml of mixed vaccine of pertussis, diphtheria and tetanus, and the mixture was subcutaneously administered in four portions into rat's footpad. After 14 days, blood was sampled from the carotid artery, and the serum was separated from the sampled blood, and preserved under freezing at -80° C. The potency of the antiserumin in the homologous PCA for 48 hours was 1:32.
Groups each consisting of 3 rats were used, and 0.05 ml of anti-EWA rat serum diluted with a physiological saline solution to 8 times as much was incutaneously injected each at two positions of depilated back to make the animals passively sensitised. After 47 hours, the compound of the present invention, or its solution (physiological saline solution or CMC solution) was orally administered. One hour thereafter, 0.5 ml/100 g of 1% Evan's blue physiological saline solution containing 2 mg of the antigen EWA was administered into the tail vein, and 30 minutes thereafter, the animals were sacrificed by exsanguination. Then, the skins were stripped and the amount of leaked pigment at the blue-dyed parts was measured according to the Katayama et al method [Microbiol. Immunol. 22, 89 (1978)]. That is, the blue-dyed parts were cut out by scissors, and placed in test tubes containing 1 ml of 1N KOH and incubated at 37° C. for 24 hours. Then, 9 ml of a mixture of 0.6N phosphoric acid and acetone (5:13) was added thereto, and the mixture was shaked and centrifuged at 2,500 rpm for 10 minutes. Absorbancy of the supernatant at […] was measured, and the amount of leaked pigment was quantitatively determined by the calibration curve prepared in advance. An average of measurements at the two position was made a value for one zooid, and inhibition rate for the individual zooid was calculated by the following formula: [formula]

[2] = mice, mortality 7 days after administration
[3] = minimum dosage with positive case in at least one of three rats

SMILES | Acute toxicity (MLD), ip (dd, male mice; [2]) | Acute toxicity (MLD), po (dd, male mice; [2]) | minimal effective dose [1, 3] | responders at 0.1 mg/kg ([1]; dosage 0.1 mg/kg) | responders at 1 mg/kg ([1]; dosage 1 mg/kg) | responders at 10 mg/kg ([1]; dosage 10 mg/kg) | responders at 100 mg/kg ([1]; dosage 100 mg/kg) | responders at 0.01 mg/kg ([1]; dosage 0.01 mg/kg) | Acute toxicity (MLD), ip (dd, male mice; mouse, in vivo, 10080 min) | Acute toxicity (MLD), po (dd, male mice; mouse, in vivo, 10080 min) | responders at 0.001 mg/kg [1] | Number of positive zooids in one group of 3 zooids ([1]; dosage 0.01 mg/kg) | Number of positive zooids in one group of 3 zooids ([1]; dosage 0.1 mg/kg) | Number of positive zooids in one group of 3 zooids ([1]; dosage 1 mg/kg) | Number of positive zooids in one group of 3 zooids ([1]; dosage 10 mg/kg) | Number of positive zooids in one group of 3 zooids ([1]; dosage 100 mg/kg) | MED (minimum effective dosage), PCA inhibition [1, 3]
O=C(O)c1ccc2c(c1)C(=CCCN1CCCC1)c1ccccc1CO2 [Compound 7, 11-(3-Pyrrolidinopropylidene)-6,11-dihydrodibenz[b,e]oxepin-2-carboxylic acid] | > 100 mg/kg | > 300 mg/kg | 1 mg/kg | 0% | 33.3% | 66.7% | 100% | – | – | – | – | – | – | – | – | – | –
O=C(O)c1ccc2c(c1)C(=CCCN1CCSCC1)c1ccccc1CO2 [Compound 58, 11-(3-Thiomorpholinopropylidene)-6,11-dihydrodibenz[b,e]oxepin-2-carboxylicacid] | > 100 mg/kg | > 300 mg/kg | 1 mg/kg | 0% | 100% | 100% | 100% | – | – | – | – | – | – | – | – | – | –
O=C(O)c1ccc2c(c1)C(=CCN1CCOCC1)c1ccccc1CO2 [Compound 13, 11-(2-Morpholinoethylidene)-6,11-dihydrodibenz[b,e]oxepin-2-carboxylic acid] | > 100 mg/kg | > 300 mg/kg | 10 mg/kg | 0% | 0% | 33.3% | 100% | – | – | – | – | – | – | – | – | – | –
CN(C)CC/C=C1\c2ccccc2COc2ccc(CC(=O)O)cc21 [20'] | – | – | 0.1 mg/kg | – | 100% | – | – | 0% | – | – | – | – | – | – | – | – | –
CN1CCN(C/C=C2\c3ccccc3COc3ccc(C(=O)O)cc32)CC1 [Compound 11, 11-[2-(4-Methylpiperazino)ethylidene]-6,11-dihydrodibenz[b,e]oxepin-2-carboxylic acid] | – | – | 10 mg/kg | 0% | 0% | 33.3% | 66.7% | – | > 100 mg/kg | > 300 mg/kg | – | – | – | – | – | – | –
CN(C)CC/C=C1/c2ccccc2COc2ccc(CCO)cc21 [Compound 31 (cis), Cis-11-(3-dimethylaminopropylidene)-2-(2-hydroxyethyl)-6,11-dihydrodibenz[b,e]oxepin] | > 100 mg/kg | 300 mg/kg | 0.1 mg/kg | 66.7% | 100% | 100% | – | 0% | – | – | 0% | – | – | – | – | – | –
CN(C)CC/C=C1/c2ccccc2COc2ccc(CCC(=O)O)cc21 [Compound 28 (cis), Cis-3-[11-(3-dimethylaminopropylidene)-6,11-dihydrodibenz[b,e]oxepin-2-yl]-propionic acid] | > 100 mg/kg | > 300 mg/kg | 0.1 mg/kg | 33.3% | 100% | 66.7% | 100% | 0% | – | – | – | – | – | – | – | – | –
CN(C)CC/C=C1\c2ccccc2COc2ccc(CC(=O)O)cc21 [Compound 20 (trans), Trans-11-(3-dimethylaminopropylidene)-6,11-dihydrodibenz[b,e]oxepin-2-acetic acid] | > 100 mg/kg | > 300 mg/kg | – | – | – | – | – | – | – | – | 0% | 0/3 | 3/3 | 3/3 | 2/3 | 2/3 | 0.1 mg/kg
CN(C)CC/C=C1/c2ccccc2COc2ccc(/C=C/C(=O)O)cc21 [Compound 60, Trans-3-[11-(3-dimethylaminopropylidene)-6,11-dihydrodibenz[b,e]oxepin-2-yl]-acrylic acid] | > 100 mg/kg | > 300 mg/kg | 0.1 mg/kg | 33.3% | 66.7% | 100% | 100% | 0% | – | – | – | – | – | – | – | – | –
CN(C)CCCC=C1c2ccccc2COc2ccc(C(=O)O)cc21 [Compound 9, 11-(4-Dimethylaminobutylidene)-6,11-dihydrodibenz[b,e]oxepin-2-carboxylic acid] | > 100 mg/kg | > 300 mg/kg | 1 mg/kg | 0% | 66.7% | 100% | 100% | 0% | – | – | – | – | – | – | – | – | –
CN1CCN(CC=C2c3ccccc3COc3ccc(CC(=O)O)cc32)CC1 [Compound 26, 11-[2-(4-Methylpiperazino)ethylidene]-6,11-dihydrodibenz[b,e]oxepin-2-acetic acid] | > 100 mg/kg | > 300 mg/kg | 1 mg/kg | 0% | 66.7% | 100% | 100% | – | – | – | – | – | – | – | – | – | –
CN(C)CC/C=C1/c2ccccc2COc2ccc(CCCO)cc21 [Compound 33, Cis-11-(3-dimethylaminopropylidene)-2-(3-hydroxypropyl)-6,11-dihydrodibenz[b,e]oxepin; Trans-11-(3-dimethylaminopropylidene)-2-(3-hydroxypropyl)-6,11-dihydrodibenz[b,e]oxepin] | – | – | 1 mg/kg | 0% | 33.3% | 100% | 100% | – | – | – | – | – | – | – | – | – | –
O=C(O)c1ccc2c(c1)/C(=C\CN1CCSCC1)c1ccccc1CO2 [Compound 15, 11-(2-Thiomorpholinoethylidene)-6,11-dihydrodibenz[b,e]oxepin-2-carboxylic acid] | – | – | 100 mg/kg | 0% | 0% | 0% | 100% | – | – | – | – | – | – | – | – | – | –
CN(C)CC/C=C1\c2ccccc2COc2ccc(C(=O)O)cc21 [3'] | – | – | 0.1 mg/kg | 33.3% | 33.3% | 66.7% | 100% | 0% | – | – | – | – | – | – | – | – | –
